In US4220644A, “7-Acylamino-3-(substituted tetrazolyl thiomethyl) cephalosporins” (SmithKline Corporation, priority 1976, dated 1980):
≈ marks a conversion by molar mass, not a printed value. Like-named read-outs stand apart in the source and are kept apart here.

How the values were obtained:
[1] = system: Serra. Marc. ATCC 13880; test: MIC in vitro (Table 1), Serra. Marc. ATCC 13880; format: cell-based
Excerpt: (§1) Compound names corresponding to numbers are given in the experimental section. For comparative purposes, data for cephamandole, which is 7-mandelamido-3-(1-methyltetrazol-5-ylthiomethyl)-3-cephem-4-carboxylic acid, is also given in Tables 1 and 2.

[2] = system: Salmonella ATCC 12176; test: MIC in vitro (Table 1), Salmonella ATCC 12176; format: cell-based
Excerpt: as §1, with “The compounds of Formula I have antibacterial activity against both Gram-positive and Gram-negative organisms. […] Compound” for “Compound”

[3] = system: Kleb. pneumo. 4200; test: In vivo mouse protection (Table 2), Kleb. pneumo. 4200
Excerpt: as §1

[4] = system: S. aureus HH 127; test: MIC in vitro (Table 1), S. aureus HH 127; format: cell-based; conditions: Staphylococcus aureus
Excerpt: as §1

[5] = system: Proteus morgani 179; test: MIC in vitro (Table 1), Proteus morgani 179; format: cell-based
Excerpt: as §1

[6] = system: Kleb. pneumo. SK 1200; test: MIC in vitro (Table 1), Kleb. pneumo. SK 1200; format: cell-based
Excerpt: as §1

[7] = system: Shigella HH 117; test: MIC in vitro (Table 1), Shigella HH 117; format: cell-based
Excerpt: as §1, with “The compounds of Formula I have antibacterial activity against both Gram-positive and Gram-negative organisms. […] Compound” for “Compound”

[8] = system: Kleb. pneumo. SK 4200; test: MIC in vitro (Table 1), Kleb. pneumo. SK 4200; format: cell-based
Excerpt: as §1

[9] = system: Entero. aerog. ATCC 13048; test: MIC in vitro (Table 1), Entero. aerog. ATCC 13048; format: cell-based
Excerpt: as §1

[10] = system: Pseudo. sp. HH 63; test: MIC in vitro (Table 1), Pseudo. sp. HH 63; format: cell-based; conditions: in vitro, Pseudo. sp. HH 63; read-out: MIC
Excerpt: as §1, with “The compounds of Formula I have antibacterial activity against both Gram-positive and Gram-negative organisms. […] Compound” for “Compound”

[11] = system: S. aureus SK 23390; test: MIC in vitro (Table 1), S. aureus SK 23390; format: cell-based; conditions: Staphylococcus aureus
Excerpt: as §1

[12] = system: E. coli HH 33779; test: MIC in vitro (Table 1), E. coli HH 33779; format: cell-based
Excerpt: as §1

[13] = system: E. coli 12140; test: In vivo mouse protection (Table 2), E. coli 12140
Excerpt: as §1

[14] = system: Entero. cloacae HH 31254; test: MIC in vitro (Table 1), Entero. cloacae HH 31254; format: cell-based; conditions: Enterobacter cloacae
Excerpt: as §1

[15] = system: Strep. Faecalis HH 34358; test: MIC in vitro (Table 1), Strep. Faecalis HH 34358; format: cell-based; conditions: in vitro, Strep. Faecalis HH 34358
Excerpt: as §1

[16] = system: E. coli SK 12140; test: MIC in vitro (Table 1), E. coli SK 12140; format: cell-based; conditions: Escherichia coli, SK12140, in vitro
Excerpt: as §1

[17] = in vitro, Serra. Marc. ATCC 13880, read-out: MIC
[18] = Salmonella, ATCC12176, in vitro, read-out: MIC
[19] = Shigella, HH117, in vitro, read-out: MIC
[20] = in vitro, Kleb. pneumo. SK 4200, read-out: MIC
[21] = in vitro, Entero. aerog. ATCC 13048, read-out: MIC
[22] = SK23390, in vitro, S. aureus SK 23390, read-out: MIC
[23] = Escherichia coli, HH33779, in vitro, E. coli HH 33779, read-out: MIC
[24] = Escherichia coli, 12140, po, E. coli 12140, p.o.
[25] = Escherichia coli, 12140, sc, E. coli 12140, s.c.
[26] = HH31254, in vitro, Entero. cloacae HH 31254, read-out: MIC
[27] = Enterococcus faecalis, read-out: MIC
[28] = HH127, in vitro, S. aureus HH 127, read-out: MIC

Structure (SMILES) | MIC [1] | MIC [1, 17] | MIC [2, 18] | ED50 ([3]; po, Kleb. pneumo. 4200, p.o.) | MIC [6] | MIC ([6]; read-out: MIC) | MIC [7, 19] | MIC [8, 20] | MIC [9, 21] | MIC [10] | MIC [11, 22] | MIC [12, 23] | ED50 [13, 24] | ED50 [13, 25] | MIC [14, 26] | MIC [15, 27] | MIC [16] | MIC [4, 28] | MIC ([5]; read-out: MIC) | MIC ([16]; read-out: MIC) | also measured
O=C(O)Cn1nnnc1SCC1=C(C(=O)O)N2C(=O)C(NC(=O)[C@H](O)c3ccccc3)[C@H]2SC1 (stereo partly drawn) [I, 7-D-Mandelamido-3-(1-carboxymethyltetrazol-5-ylthiomethyl)-3-cephem-4-carboxylic acid] | 25 µg/mL (≈ 49.4 µM) | 100 µg/mL (≈ 197 µM) | 1.6 µg/mL (≈ 3.16 µM) | 25 mg/kg | 1.6 µg/mL (≈ 3.16 µM) | 0.8 µg/mL (≈ 1.58 µM) | 1.6 µg/mL (≈ 3.16 µM) | 0.8 µg/mL (≈ 1.58 µM) | 6.3 µg/mL (≈ 12.4 µM) | > 200 µg/mL | 3.1 µg/mL (≈ 6.12 µM) | 6.3 µg/mL (≈ 12.4 µM) | 50 mg/kg | 1.56 mg/kg | 0.8 µg/mL (≈ 1.58 µM) | 100 µg/mL (≈ 197 µM) | 1.6 µg/mL (≈ 3.16 µM) |  |  |  | MIC ([2]; in vitro): 0.8 µg/mL (≈ 1.58 µM); MIC ([4]; HH127): 6.3 µg/mL (≈ 12.4 µM); MIC [5]: 3.1 µg/mL (≈ 6.12 µM); MIC ([7]; in vitro): 0.8 µg/mL (≈ 1.58 µM); MIC [8]: 1.6 µg/mL (≈ 3.16 µM); MIC [9]: 12.5 µg/mL (≈ 24.7 µM); MIC ([11]; SK23390): 1.6 µg/mL (≈ 3.16 µM); MIC ([12]; Escherichia coli, HH33779): 1.6 µg/mL (≈ 3.16 µM)
N[C@@H](C(=O)NC1C(=O)N2C(C(=O)O)=C(CSc3nnnn3CC(=O)O)CS[C@H]12)c1ccc(O)cc1 (stereo partly drawn) [II, 7-(D-α-Amino-4-hydroxyphenylacetamido)-3-(1-carboxymethyl-tetrazol-5-ylthiomethyl)-3-cephem-4-carboxylic acid] |  | > 200 µg/mL | 1.6 µg/mL (≈ 3.07 µM) | 13.2 mg/kg | 6.3 µg/mL (≈ 12.1 µM) |  | 6.3 µg/mL (≈ 12.1 µM) | 1.6 µg/mL (≈ 3.07 µM) | 25 µg/mL (≈ 47.9 µM) | > 200 µg/mL | 12.5 µg/mL (≈ 24 µM) | 12.5 µg/mL (≈ 24 µM) |  |  | 1.6 µg/mL (≈ 3.07 µM) | 100 µg/mL (≈ 192 µM) |  | 12.5 µg/mL (≈ 24 µM) | > 200 µg/mL | 3.1 µg/mL (≈ 5.94 µM) | 
NC(=O)Cn1nnnc1SCC1=C(C(=O)O)N2C(=O)C(NC(=O)[C@H](N)c3ccc(O)cc3)[C@H]2SC1 (stereo partly drawn) [VI, 7-(D-α-Amino-4-hydroxyphenylacetamido) -3-(1-carbamoylmethyltetrazol-5-ylthiomethyl) -3-cephem-4-carboxylic acid] |  | 100 µg/mL (≈ 192 µM) | 1.6 µg/mL (≈ 3.07 µM) | 4 mg/kg |  | 6.3 µg/mL (≈ 12.1 µM) | 3.1 µg/mL (≈ 5.96 µM) | 12.5 µg/mL (≈ 24 µM) | 6.3 µg/mL (≈ 12.1 µM) | > 200 µg/mL | 6.3 µg/mL (≈ 12.1 µM) | 6.3 µg/mL (≈ 12.1 µM) |  |  |  | 50 µg/mL (≈ 96.1 µM) |  | 6.3 µg/mL (≈ 12.1 µM) | 50 µg/mL (≈ 96.1 µM) | 6.3 µg/mL (≈ 12.1 µM) | ED50 ([3]; sc, Kleb. pneumo. 4200, s.c.): 0.92 mg/kg; MIC ([14]; HH31254): 3.1 µg/mL (≈ 5.96 µM)
NC(=O)CCn1nnnc1SCC1=C(C(=O)O)N2C(=O)C(NC(=O)[C@H](O)c3ccccc3)[C@H]2SC1 (stereo partly drawn) [VII, 7-D-Mandelamido-3-[1-(2-carbamoylethyl)tetrazol-5-ylthiomethyl]-3-cephem-4-carboxylic acid] | 6.3 µg/mL (≈ 12.1 µM) | 50 µg/mL (≈ 96.2 µM) | 0.2 µg/mL (≈ 0.385 µM) | 17 mg/kg |  | 0.8 µg/mL (≈ 1.54 µM) | 0.2 µg/mL (≈ 0.385 µM) | 0.8 µg/mL (≈ 1.54 µM) |  | > 200 µg/mL | 0.8 µg/mL (≈ 1.54 µM) | 1.6 µg/mL (≈ 3.08 µM) | 25 mg/kg | 0.86 mg/kg | 1.6 µg/mL (≈ 3.08 µM) | 12.5 µg/mL (≈ 24.1 µM) | 0.4 µg/mL (≈ 0.77 µM) |  | 1.6 µg/mL (≈ 3.08 µM) | 0.8 µg/mL (≈ 1.54 µM) | ED50 ([3]; sc, Kleb. pneumo. 4200, s.c.): 0.78 mg/kg; MIC [5]: 0.8 µg/mL (≈ 1.54 µM); MIC ([7]; in vitro): 0.4 µg/mL (≈ 0.77 µM); MIC [8]: 0.4 µg/mL (≈ 0.77 µM); MIC ([11]; SK23390): 0.4 µg/mL (≈ 0.77 µM); MIC ([12]; in vitro, E. coli HH 33779): 3.1 µg/mL (≈ 5.97 µM); MIC ([14]; HH31254): 0.4 µg/mL (≈ 0.77 µM); MIC [15]: 25 µg/mL (≈ 48.1 µM)
O=C(O)CCn1nnnc1SCC1=C(C(=O)O)N2C(=O)C(NC(=O)[C@H](O)c3ccccc3)[C@H]2SC1 (stereo partly drawn) [VIII, 7-D-Mandelamido-3-[1-(2-carboxyethyl)tetrazol-5-ylthiomethyl]-3-cephem-4-carboxylic acid] | 12.5 µg/mL (≈ 24 µM) | 50 µg/mL (≈ 96.1 µM) | 0.8 µg/mL (≈ 1.54 µM) | 25 mg/kg | 0.8 µg/mL (≈ 1.54 µM) | 1.6 µg/mL (≈ 3.07 µM) | 0.8 µg/mL (≈ 1.54 µM) | 0.8 µg/mL (≈ 1.54 µM) |  | > 200 µg/mL |  |  | 50 mg/kg | 0.86 mg/kg |  | 50 µg/mL (≈ 96.1 µM) | 0.4 µg/mL (≈ 0.768 µM) | 1.6 µg/mL (≈ 3.07 µM) | 6.3 µg/mL (≈ 12.1 µM) | 1.6 µg/mL (≈ 3.07 µM) | MIC ([1]; in vitro, Serra. Marc. ATCC 13880): 100 µg/mL (≈ 192 µM); MIC ([2]; in vitro): 0.4 µg/mL (≈ 0.768 µM); ED50 ([3]; sc, Kleb. pneumo. 4200, s.c.): 0.46 mg/kg; MIC ([4]; HH127): 3.1 µg/mL (≈ 5.96 µM); MIC ([8]; in vitro, Kleb. pneumo. SK 4200): 1.6 µg/mL (≈ 3.07 µM); MIC [9]: 3.1 µg/mL (≈ 5.96 µM); MIC ([14]; HH31254): 3.1 µg/mL (≈ 5.96 µM); MIC [15]: 100 µg/mL (≈ 192 µM)
